Data on three compounds can be found in US8420132B2, “Synergistic anti-inflammatory and antioxidant dietary supplement compositions” (Laila Impex, priority 2007, dated 2013).

Assay [1] has as its target T1, 5-LOX (Homo sapiens, UniProt P09917).
T1 sequence (P09917 1-674): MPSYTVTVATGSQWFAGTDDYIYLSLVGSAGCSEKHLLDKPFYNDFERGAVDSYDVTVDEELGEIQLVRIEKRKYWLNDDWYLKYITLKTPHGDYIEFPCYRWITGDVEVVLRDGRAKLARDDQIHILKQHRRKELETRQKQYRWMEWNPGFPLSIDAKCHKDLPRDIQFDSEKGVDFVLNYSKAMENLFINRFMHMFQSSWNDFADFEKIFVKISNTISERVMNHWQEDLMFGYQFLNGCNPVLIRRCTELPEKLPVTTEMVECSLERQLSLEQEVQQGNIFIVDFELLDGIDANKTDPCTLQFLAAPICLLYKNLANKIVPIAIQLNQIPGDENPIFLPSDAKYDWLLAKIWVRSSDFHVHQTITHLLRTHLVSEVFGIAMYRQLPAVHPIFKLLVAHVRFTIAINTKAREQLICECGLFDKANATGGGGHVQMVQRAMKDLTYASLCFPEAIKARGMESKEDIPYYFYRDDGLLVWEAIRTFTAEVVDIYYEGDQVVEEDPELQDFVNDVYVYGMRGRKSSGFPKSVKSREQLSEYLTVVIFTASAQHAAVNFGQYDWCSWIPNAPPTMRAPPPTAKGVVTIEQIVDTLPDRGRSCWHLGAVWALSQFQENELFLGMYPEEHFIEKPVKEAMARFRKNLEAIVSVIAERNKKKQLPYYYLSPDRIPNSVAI
As to conditions: of all the six boswellic acids; cited from earlier work.

Assay [2] deals with Freund's Complete Adjuvant (FCA) challenged rats. Nature of the assay: Freund's Complete Adjuvant induced inflammation (paw volume) in rats. The class given is in vivo. The following applies: 50 mg/kg daily in 1% CMC for 28 days, FCA on day 14, paw volumes at 28th day. Here is the method: Test animals (rats, 200-300 g) of either sex were randomly distributed into different groups, with 5 animals in each group. Rats were supplemented daily with either demethylated curcuminoids (50 mg/kg) or enriched AKBA extract (50 mg/kg) or glucosamine (50 mg/kg), or reseveratrol (50 mg/kg), garlic extract (50 mg/kg) or ginger extract (50 mg/kg), or composition 7 (50 mg/kg) in 1% CMC for 28 days. The control group received same volume of vehicle (1% CMC); a standard drug, Prednisolone (10 mg/kg, orally) was used in the control treatment group. On the day 14, 100 μl of Freund's Complete Adjuvant (FCA) was injected subcutaneously in the sub planter region of the left hind paw. Blood samples were collected from each animal on the previous day of FCA challenge and at the day of termination of experiment i.e. 14 days after challenge. At the 28th day paw volumes were measured and after sacrificing the animals, liver tissues were excised and stored at −80° C. until further use.

For the compound `CC(=O)O[C@H]1CC[C@@]2(C)C(CC[C@]3(C)C2C(=O)C=C2C4[C@@H](C)[C@@H](C)CC[C@]4(C)CC[C@@]23C)[C@]1(C)C(=O)O` (stereo partly drawn) [AKBA, 3-O-acetyl-11-keto-β-boswellic acid], the “inhibitory activity against 5-LOX (in words)” value in assay [1] is given as “most pronounced inhibitory activity”.
On to `N[C@H]1C(O)O[C@H](CO)[C@@H](O)[C@@H]1O` (stereo partly drawn) [Glucosamine, glucosamine], for which, in assay [2], the percent of inhibitions turned out to be 5.5%.
On to `Oc1ccc(/C=C/c2cc(O)cc(O)c2)cc1` [Reseveratrol, reseveratrol], for which the percent of inhibitions in assay [2] was found to be 20.5%.
